In ChEMBL document CHEMBL5584358, “Fungal Coculture of Herpotrichia sp. and Trametes versicolor Induces Production of Diverse Metabolites with Anti-Parkinson's Neuroprotective Activity” (J Nat Prod, 2024) one finds Activity and viability data, which are given here for 16 molecules.

Calls of active or inactive are those of the source. The calls are words filed in the database; no cut-off is given here.

In data set [1] the test system is PC-12. As to the kind of experiment: Neuroprotective activity against MPP+-induced rat PC12 cell death assessed as increase in cell viability preincubated for 1 hr followed by MPP+ addition and measured after 24 hrs by CCK-8 assay. The format is functional, cell-based. The following applies: dose 1-20 µM, time 25.0 hrs. In general terms: Tetrazolium dyes change colour on reduction, which living cells bring about.

For data set [2], the system named is PC-12. As to the kind of experiment: Neuroprotective activity against MPP+-induced rat PC12 cell death assessed as cell viability at 20 uM preincubated for 1 hr followed by MPP+ addition and measured after 24 hrs by CCK-8 assay (reference value: 57%). It is filed as functional. The following applies: time 25 hrs, read-out: Activity.
In data set [3] the test system is PC-12. As to the kind of experiment: Cytotoxicity against rat PC12 cells assessed as effect on cell viability at 20 uM measured after 24 hrs by CCK-8 assay. The format is toxicity, cell-based. The following applies: pc-12, 24 h.
For data set [4], the system named is PC-12. As to the kind of experiment: Neuroprotective activity against MPP+-induced rat PC12 cell death assessed as increase in cell viability at […] preincubated for 1 hr followed by MPP+ addition and measured after 24 hrs by CCK-8 assay. The following applies: time 25.0 hrs. The format is functional, cell-based.

As for `C=C1CC[C@@H](C(C)(C)O)[C@@H]2C[C@H](C)[C@@H](O)C[C@@H]12`, the Activity result in the data set with PC-12 [1] was “Dose-Dependent Effect”; in the data set on PC-12 [3] it was “Non-Toxic”. Besides, in the data set on PC-12 [2], the viability at 20 µM is 72%. Turning to `C=CC(C)(O)C(O)CC(O)C(C)(O)CCC=C(C)C` (centres undefined), the Activity result in the data set on PC-12 [3] is recorded as “Non-Toxic”.

Regarding `CC1=C[C@](C)(O)[C@H](C)O[C@H]1/C(C)=C/C=C/C=C/C=C/[C@@]1(C)C2OC(=O)C1(C)C(=O)C2C` (some centres undefined), the Activity result in the data set on PC-12 [3] is given as “Non-Toxic”.

As to `CC(C)=CC[C@H](O)[C@@](C)(O)[C@@H](O)C/C=C(/C)[C@H](O)CO`, the Activity result in the data set with PC-12 [3] is “Non-Toxic”. Regarding `CC/C=C/c1c(OC)cc(=O)oc1CO`, the Activity result in the data set with PC-12 [3] is recorded as “Non-Toxic”. As to `CC(CO)[C@@H]1CC[C@@](C)(O)[C@@H]2CCC(CO)=C[C@H]21` (some centres undefined), in the data set with PC-12 [4], the outcome was Active. In addition, the Activity entry was “Dose-Dependent Effect” in the data set with PC-12 [1] and “Non-Toxic” in the data set with PC-12 [3]. Also, the viability at 20 µM in the data set with PC-12 [2] was found to be 69%.

On to `CCC[C@H](O)c1c(OC)cc(=O)oc1C`, for which the Activity entry in the data set with PC-12 [3] is reported as “Non-Toxic”.

On to `C=CC1(C)CC/C=C(/C)CCC(C(C)(C)O)O1` (centres undefined) [NEROPLOMACROL], for which the Activity result in the data set on PC-12 [1] was “Dose-Dependent Effect”; with PC-12 [3], “Non-Toxic”. Further, in the data set with PC-12 [2], the viability at 20 µM amounted to 69%. For `COc1cc(=O)oc(C)c1/C=C/CCOC(C)=O`, the Activity entry in the data set with PC-12 [3] is “Non-Toxic”. Still for that read-out and setting: as for `CC1=C[C@@](C)(O)[C@H](C)O[C@H]1/C(C)=C/C=C/C=C/C=C/[C@@]1(C)C2OC(=O)C1(C)C(=O)C2C` (some centres undefined), the entry is “Non-Toxic”. On the same count and under the same terms, as for `C=C1CC[C@H]2[C@](C)(CO)CC[C@@H](O)[C@]2(C)[C@H]1CO`, the entry is “Non-Toxic”; as for `Cc1ccc([C@@H](C)[C@@H](C[C@@H](O)C(C)(C)O)O[C@@H]2OC[C@@H](O)[C@H](O)[C@H]2O)cc1`, “Non-Toxic”.

On to `CC(=O)[C@H]1CC[C@@]2(O)C3=CC(=O)[C@@H]4C[C@H](O)CC[C@]4(C)[C@H]3C[C@@H](O)[C@]12C`, for which the Activity entry with PC-12 [1] is “Dose-Dependent Effect”; in the data set with PC-12 [3], “Non-Toxic”. In addition, the viability at 20 µM with PC-12 [2] came to 72%. For `CC(=O)[C@H]1CC[C@H]2C3=C[C@H](O)[C@H]4C[C@H](O)CC[C@]4(C)[C@H]3[C@H](O)C[C@]12C`, in that order: “Dose-Dependent Effect”, “Non-Toxic” and 68%. Take `CC(=O)[C@H]1CC[C@H]2C3=CC(=O)[C@H]4C[C@H](O)CC[C@]4(C)[C@H]3[C@H](O)C[C@]12C`: the Activity entry is “Dose-Dependent Effect” in the data set on PC-12 [1] and “Non-Toxic” with PC-12 [3]. Further, in the data set on PC-12 [2], the viability at 20 µM was 69%.

Turning to `CCC[C@H](O[C@@H]1OC[C@@H](O)[C@H](O)[C@H]1O)c1c(OC)cc(=O)oc1C`, the Activity result in the data set on PC-12 [3] is reported as “Non-Toxic”.
